Test system: hepatocytes
Assay: Seq-Well scRNA-Seq of hepatocytes after APAP overdose (signature scores, DEG vs untreated)
Format: in vivo, mouse
Conditions: APAP vs UT

CC(=O)Nc1ccc(O)cc1 [APAP, acetaminophen]
Tm7sf2 logFC (composite DEG): −0.3164 | Tmbim4 logFC (composite DEG): 0.3227 | Tmbim6 logFC (composite DEG): 0.3387 | Tmed5 logFC (composite DEG): 0.4016 | Tmem14c logFC (composite DEG): −0.3685 | Tmem37 logFC (composite DEG): −0.2822 | Tmem56 logFC (composite DEG): 1 | Tmem147 logFC (composite DEG): −0.2838 | Tmem160 logFC (composite DEG): −0.339 | Tmem205 logFC (composite DEG): −0.7747 | Tmem243 logFC (composite DEG): −0.3791 | Tmem258 logFC (composite DEG): −0.2769 | Tmprss6 logFC (composite DEG): −0.2802 | Tmsb4x logFC (composite DEG): 0.7806 | Tnks2 logFC (composite DEG): 0.3176 | Tns1 logFC (composite DEG): 0.4349 | Tob1 logFC (composite DEG): −0.3387 | Tomm70a logFC (composite DEG): 0.2688 | Tpr logFC (composite DEG): 0.4409 | Trf logFC (composite DEG): −0.2619 | Trib1 logFC (composite DEG): 0.3317 | Trp53inp1 logFC (composite DEG): 1.008 | Tsc22d1 logFC (composite DEG): −0.2997 | Tspan31 logFC (composite DEG): −0.2959 | Tspo logFC (composite DEG): −0.3157 | Ttc36 logFC (composite DEG): −0.6606 | Tubb6 logFC (composite DEG): 0.5767 | Txn1 logFC (composite DEG): −0.3091 | Txndc5 logFC (composite DEG): 0.2901 | Txnrd1 logFC (composite DEG): 1.444 | Tyrobp logFC (composite DEG): 0.4666 | Ubb logFC (composite DEG): −0.275 | Ubc logFC (composite DEG): −0.6618 | Ubl5 logFC (composite DEG): −0.3033 | Ubr4 logFC (composite DEG): 0.3301 | Ugp2 logFC (composite DEG): 0.2973 | Ugt2b1 logFC (composite DEG): −0.7768 | Ugt2b5 logFC (composite DEG): −0.6034 | Ugt2b36 logFC (composite DEG): −0.5834 | Uhrf1bp1l logFC (composite DEG): 0.4198 | Uqcc2 logFC (composite DEG): −0.3269 | Uqcrb logFC (composite DEG): −0.4084 | Uqcrq logFC (composite DEG): −0.8867 | Urah logFC (composite DEG): −0.7641 | Uroc1 logFC (composite DEG): 0.4162 | Vcam1 logFC (composite DEG): 0.4574 | Vnn3 logFC (composite DEG): 0.2765 | Vtn logFC (composite DEG): 0.3338 | Wbp1l logFC (composite DEG): 0.5535 | Wdr26 logFC (composite DEG): 0.4325 | Wdr43 logFC (composite DEG): 0.3438 | Xiap logFC (composite DEG): 0.2602 | Yap1 logFC (composite DEG): 0.3281 | Zbtb20 logFC (composite DEG): 0.4715 | Zfp91 logFC (composite DEG): 0.3707 | Zyx logFC (composite DEG): 0.2983 | mmu-mir-6240 logFC (composite DEG): 1.101 | mt-Co3 logFC (composite DEG): −1.167 | 0610007P14Rik logFC (A24logFC): −0.257 | 1110058L19Rik logFC (A24logFC): −0.2581 | 4931406C07Rik logFC (A24logFC): −0.2544 | 4932438A13Rik logFC (A24logFC): 0.2879 | 2810428115Rik logFC (A24logFC): −0.2631 | Abcb11 logFC (A24logFC): −0.2618 | Abcc2 logFC (A24logFC): 0.2897 | Abce1 logFC (A24logFC): 0.28 | Abcf1 logFC (A24logFC): 0.3032 | Abcg2 logFC (A24logFC): −0.2809 | Acaa1a logFC (A24logFC): −0.3018 | Acat3 logFC (A24logFC): −0.3115 | Acot13 logFC (A24logFC): −0.2886 | Acsm5 logFC (A24logFC): −0.2614 | Actr3 logFC (A24logFC): 0.276 | Aes logFC (A24logFC): −0.2642 | Anxa5 logFC (A24logFC): 0.3654 | Apof logFC (A24logFC): −0.2522 | Arhgdia logFC (A24logFC): 0.2563 | Ash11 logFC (A24logFC): 0.2657 | Atf4 logFC (A24logFC): 0.3411 | Bc1af1 logFC (A24logFC): 0.2685 | Bdhl logFC (A24logFC): −0.2936 | C6 logFC (A24logFC): −0.267 | C1d logFC (A24logFC): −0.2553 | Cap1 logFC (A24logFC): 0.3251 | Ccdc50 logFC (A24logFC): 0.2858 | Ccnl1 logFC (A24logFC): 0.2566 | Cdh1 logFC (A24logFC): 0.2697 | Cep85 logFC (A24logFC): 0.2839 | Chmp4b logFC (A24logFC): 0.3002 | Chuk logFC (A24logFC): 0.3724 | Clic4 logFC (A24logFC): 0.2998 | Coasy logFC (A24logFC): −0.2534 | Commd3 logFC (A24logFC): −0.2656 | Csrp3 logFC (A24logFC): −0.294 | Ctnnd1 logFC (A24logFC): 0.2518 | Ctsc logFC (A24logFC): 0.361 | Cu11 logFC (A24logFC): 0.2592 | Cu13 logFC (A24logFC): 0.2788 | Cybb logFC (A24logFC): 0.3778 | Dcaf11 logFC (A24logFC): −0.2817 | Ddost logFC (A24logFC): 0.2504 | Ddx3y logFC (A24logFC): 0.3395 | Deb1 logFC (A24logFC): −0.267 | Dera logFC (A24logFC): −0.2674 | Diap1 logFC (A24logFC): 0.3259 | Dnaja2 logFC (A24logFC): 0.3723 | Dnajc5 logFC (A24logFC): 0.3265 | Dsp logFC (A24logFC): 0.2655 | Eea1 logFC (A24logFC): 0.2612 | Eif4a1 logFC (A24logFC): 0.2519 | Eif4ebp1 logFC (A24logFC): 0.2617 | Eifia logFC (A24logFC): 0.3147 | Eifib logFC (A24logFC): 0.2503 | Eific logFC (A24logFC): 0.302 | Elovl5 logFC (A24logFC): 0.3352 | Fam195a logFC (A24logFC): −0.2649 | Fasn logFC (A24logFC): 0.2914 | Fbxo21 logFC (A24logFC): −0.2631 | Ftsj3 logFC (A24logFC): 0.2552 | Gadd45a logFC (A24logFC): 0.2829 | Gars logFC (A24logFC): 0.2576 | Gcat logFC (A24logFC): −0.2587 | Gcgr logFC (A24logFC): −0.2576 | Gda logFC (A24logFC): 0.6275 | Gldc logFC (A24logFC): 0.2802 | Glul logFC (A24logFC): 0.3795 | Gm5424 logFC (A24logFC): 0.2698 | Gm20594 logFC (A24logFC): −0.36 | Gnai2 logFC (A24logFC): 1 | Gnas logFC (A24logFC): 0.2589 | Gsr logFC (A24logFC): 0.4128 | Gtf2a2 logFC (A24logFC): 0.2792 | H2-D1 logFC (A24logFC): 0.2865 | Hectd1 logFC (A24logFC): 0.308 | Herc1 logFC (A24logFC): 0.2562 | Herc4 logFC (A24logFC): 0.2675 | Hipk1 logFC (A24logFC): 0.2916 | Hnrnpu logFC (A24logFC): 0.3394 | Hpn logFC (A24logFC): −0.2686 | Hsbp1 logFC (A24logFC): −0.2867 | Iah1 logFC (A24logFC): −0.293 | Impad1 logFC (A24logFC): 0.3227 | Ivns1abp logFC (A24logFC): 0.3566 | Kdm5a logFC (A24logFC): 0.3514 | Ldlr logFC (A24logFC): 0.282 | Lipc logFC (A24logFC): −0.2548 | Magi3 logFC (A24logFC): 0.27 | Map3k2 logFC (A24logFC): 0.2518 | Mapkapk2 logFC (A24logFC): 0.3138 | Megf9 logFC (A24logFC): 0.2769 | Mgea5 logFC (A24logFC): 0.3263 | Mrpl11 logFC (A24logFC): −0.2685 | Mrpl15 logFC (A24logFC): −0.2912 | Mrpl20 logFC (A24logFC): −0.3093 | Mrpl28 logFC (A24logFC): −0.2699 | Mrpl34 logFC (A24logFC): −0.2838 | Mrpl41 logFC (A24logFC): −0.2674 | Mrpl42 logFC (A24logFC): −0.2845 | Mrps12 logFC (A24logFC): −0.2504 | Mvd logFC (A24logFC): −0.2704 | Myeov2 logFC (A24logFC): −0.3052 | Myo1b logFC (A24logFC): 0.2624 | Naa50 logFC (A24logFC): 0.2657 | Ndufa5 logFC (A24logFC): −0.252 | Nek7 logFC (A24logFC): 0.2911 | Net1 logFC (A24logFC): 0.3479 | Nploc4 logFC (A24logFC): 0.2918 | Nqo2 logFC (A24logFC): −0.2678 | Nucks1 logFC (A24logFC): 0.3558 | Nudt4 logFC (A24logFC): 0.2542 | Pa2g4 logFC (A24logFC): 0.2893 | Papss2 logFC (A24logFC): −0.2545 | Pcm1 logFC (A24logFC): 0.2654 | Pde3b logFC (A24logFC): −0.259 | Pdzd8 logFC (A24logFC): 0.2863 | Pet100 logFC (A24logFC): −0.28 | Pgls logFC (A24logFC): −0.2747 | Pi4k2a logFC (A24logFC): 0.3536 | Pkp4 logFC (A24logFC): 0.323 | Plbd2 logFC (A24logFC): 0.2649 | Plcxd2 logFC (A24logFC): −0.2752 | Pmpcb logFC (A24logFC): −0.2636 | Ppip5k2 logFC (A24logFC): 0.3209 | Ppm1g logFC (A24logFC): 0.2522 | Proc logFC (A24logFC): −0.2707 | Prpf19 logFC (A24logFC): 0.2588 | Psap logFC (A24logFC): 0.361 | Psma1 logFC (A24logFC): −0.2567 | Psma6 logFC (A24logFC): −0.3035 | Ptpmt1 logFC (A24logFC): −0.256 | Ptpn11 logFC (A24logFC): 0.2778 | Pvrl2 logFC (A24logFC): −0.2613 | Rab6a logFC (A24logFC): 0.3234 | Rabac1 logFC (A24logFC): −0.266 | Rangap1 logFC (A24logFC): 0.2962 | Rap1b logFC (A24logFC): 0.3408 | Rassf3 logFC (A24logFC): 0.2912 | Rbm39 logFC (A24logFC): 0.2657 | Riok3 logFC (A24logFC): 0.2916 | Rmnd5a logFC (A24logFC): 0.3189 | Rnf169 logFC (A24logFC): 0.334 | Rock1 logFC (A24logFC): 0.2608

— patent publication US20230053540A1, “TREATMENT OF LIVER INJURY” (Massachusetts Institute of Technology, priority 2019, published 2023)
